Data published in patent EP0579622B1, “NEW PHENOL ETHERS, PROCESS FOR PRODUCING THE SAME AND MEDICAMENTS CONTAINING THESE COMPOUNDS” (BOEHRINGER MANNHEIM GMBH, priority 1991, dated 1992).

How the values were obtained:
LDL = assay: Inhibition of Cu++-dependent LDL oxidation (TBARS formation); assay type: biochemical; settings: 10 µM Testsubstanz, 125 µg/ml LDL-protein + 10 µM Cu++, 37° C
Experimental: (§1) Die neuen Phenolether wirken LDL-protektiv. Bei Inkubation des LDL it Redoxmetallen hemmen sie die Bildung von thiobarbitursäure-reaktiven Lipidperoxiden (Tab. 1), bei der Oxidation des LDL durch Lipoxydase wird eine selektive Hemmwirkung deutlich (Tab. 2). Unter Testbedingungen, die zu einem wirksamen LDL-Schutz führen, wird die Cholesterinesterbildung in kultivierten Makrophagen gehemmt (Tab. 3).
125 µg/ml LDL-protein + 10 µM Cu⁺⁺ wurden bei 37° C in 2 ml TN-Puffer (20 mM Tris ph 8, 150 mM NaCl) in An- und Abwesenheit von 10 µM Testsubstanz inkubiert. Die Bildung von LDL-Oxidationsprodukten wurde anhand thiobarbitursäurereaktiver Substanzen (TBARS) bei OD532 16 und 23 Stunden nach Beginn der Inkubation gemessen. Tabelle 2

[1] = tested on: arteriosklerotischen Arterienwandgewebe; assay: Reduction of LDL catabolism in arteriosclerotic arterial wall tissue (131J-TDS-LDL incorporation); assay type: in vivo; settings: cholesterol-fed Kaninchen, 0.2 % Testsubstanz in diet for 10 Tage, 24 Stunden after LDL infusion, thorakale Aorta; mean ± SEM (range); control 65.7 ± 3.9
Source text: Beim arteriosklerotischen Kaninchen ist die Wirkung der neuen Phenolether direkt am arteriosklerotischen Plaque nachzuweisen. 131I-TDS-LDL, ein Radioiod-LDL, das von den Zellen nach oxydativer Modifikation aufgenommen wird, akkumuliert nach i.v. Gabe massiv im Plaquegewebe. Die neuen Phenolether hemmen signifikant und massiv den LDL-Katabolismus und damit die Cholesterinüberladung der Arterienwandzellen. Daraus resultiert langfristig die Hemmung des Wachstums der Läsionen (Tab. 4).
Jeweils 6 Kaninchen in der Kontrollgruppe und Bsp.l-Gruppe, bzw. 3 Kaninchen in der Probucol-Gruppe für 3 Monate mit 0.5 % Cholesterin-fettreicher Kaninchendiät gefüttert. Die Tiere der verschiedenen Gruppen haben S-Cholspiegel von 1028±99 (771-1358) - 1155±200 (655-1787) mg % am Ende der Fütterungsphase und- ein Körpergewicht von 3050-3680 g erreicht. Die Tiere erhalten dann für 10 Tage 0.2 % Testsubstanz in der fettreichen Diät und anschließend eine Infusion von ¹³¹J-Deoxysorbitol-LDL. Der Einbau von ¹³¹J-Deoxysorbitol in den Arterienwandzellen erfolgt ganz überwiegend in der arteriosklerotischen Läsion und ermöglicht die Quantifizierung des LDL-Umsatzes in den Zellen. 24 Stunden nach der Infusion des LDL werden die Tiere getötet und die thorakale Aorta präpariert. […]

Lipoxydase aus Sojabohne = target: T1, Lipoxydase aus Sojabohne (Glycine max, UniProt P08170); assay: Inhibition of LDL oxidation by lipoxydase (diene formation at A 234); assay type: biochemical; settings: 100 µg LDL-Protein, 500 U/ml Lipoxydase, 37° C, 0-10 µM Testsubstanz, diene formation over 3 h
T1 construct: purchased Sigma, München
T1 sequence (P08170 1-839): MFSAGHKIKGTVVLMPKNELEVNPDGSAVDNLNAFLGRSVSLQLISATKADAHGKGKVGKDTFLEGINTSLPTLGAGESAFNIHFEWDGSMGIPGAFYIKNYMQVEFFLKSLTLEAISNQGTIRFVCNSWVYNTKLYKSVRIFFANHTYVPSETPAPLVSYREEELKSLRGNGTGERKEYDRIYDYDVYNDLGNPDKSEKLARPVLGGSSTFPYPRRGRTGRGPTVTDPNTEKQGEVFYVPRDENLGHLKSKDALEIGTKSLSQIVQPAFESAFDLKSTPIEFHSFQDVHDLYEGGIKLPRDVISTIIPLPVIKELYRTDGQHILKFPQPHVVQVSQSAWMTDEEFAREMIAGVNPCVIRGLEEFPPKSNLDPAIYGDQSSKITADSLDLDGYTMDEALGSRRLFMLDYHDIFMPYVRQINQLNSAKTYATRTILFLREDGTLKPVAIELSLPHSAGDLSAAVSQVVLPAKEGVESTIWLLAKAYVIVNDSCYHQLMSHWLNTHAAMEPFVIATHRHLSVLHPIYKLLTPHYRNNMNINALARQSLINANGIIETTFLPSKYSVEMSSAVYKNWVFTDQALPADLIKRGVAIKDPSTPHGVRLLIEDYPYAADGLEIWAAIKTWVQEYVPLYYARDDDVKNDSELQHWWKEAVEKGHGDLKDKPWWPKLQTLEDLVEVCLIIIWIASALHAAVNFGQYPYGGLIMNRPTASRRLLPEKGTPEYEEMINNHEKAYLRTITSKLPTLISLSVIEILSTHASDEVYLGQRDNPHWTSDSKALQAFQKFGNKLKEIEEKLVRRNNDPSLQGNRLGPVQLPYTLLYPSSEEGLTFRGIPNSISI
Experimental: (Tab. 2). […] Die Bildung von […] aus der Oxidation […] des LDL wird bei A 234 über 3 h verfolgt und ist im Kontrollansatz ca. 0.075/h. Die Inhibition der Dienbildung dient als Maß der Lipoxydaseaktivität am LDL-substrat.

[2] = tested on: P388D.1 murine Makrophagen; assay: Inhibition of LDL-oxidation-dependent cholesterol ester formation in P388 macrophages; assay type: cell-based; settings: 10 µm test substance, 18 Stunden, control without LDL 0.44, control + LDL 1.81
Experimental: as §1
125 µg/ml LDL-Protein wurde in F 10-Medium +1 µM Cu⁺⁺ für 5 Stunden inkubiert, um LDL-Antioxidantien zu depletieren. Dann wurden P388D.1 murine Makrophagen (1 x 10⁶ Zellen/ml) in F 10-Medium + 10 % FCS für 18 Stunden mit diesem Ansatz weiter inkubiert. Unter diesen Versuchsbedingungen bleibt das Verhältnis freies Cholesterin (FC)/Protein konstant bei 0.2 µg/mg, während die Cholesterinester in Abhängigkeit von LDL im Medium in den P388D.1 Makrophagen ansteigen, hier ausgedrückt als Anstieg des Verhältnisses von Cholesterinester/freiem Cholesterin […]. Tabelle 4

Q: With `CC(C)(C)c1cc(OCCCOc2cc(C(C)(C)C)c(O)c(C(C)(C)C)c2)cc(C(C)(C)C)c1O` [Bsp. 1, 1,3-Bis-[4-hydroxy-3,5-di-tert.butyl-phenoxy]propan] as the molecule, how does the “TBARS (OD 532) %” value (LDL; 16 Std., control 75) read?
A: 19%

Q: What about the “TBARS (OD 532) %” value (LDL; 23 Std., control 100) of the same molecule?
A: 76%

Q: What about the “Einbau von 131J-TDS-LDLnorm±SEM ng/(mm³xdt/2)” value [1] of the same molecule?
A: 35 ± 1,9 (7-63) ng/(mm³xdt/2)

Q: What about the IC50 (Lipoxydase aus Sojabohne) of the same molecule?
A: 50 nM

Q: And the “CE/FC” value [2]?
A: 0.48 µg/µg

Q: For `CC(C)(Sc1cc(C(C)(C)C)c(O)c(C(C)(C)C)c1)Sc1cc(C(C)(C)C)c(O)c(C(C)(C)C)c1` [Probucol, 4,4'[Isopropylidendithio]-bis(2,6-di-tert.-butyl), reference compound], which “TBARS (OD 532) %” value (LDL; 16 Std., control 75) is on record?
A: 56%

Q: And the “TBARS (OD 532) %” value (LDL; 23 Std., control 100)?
A: 88%

Q: And the “Einbau von 131J-TDS-LDLnorm±SEM ng/(mm³xdt/2)” value [1]?
A: 84 ± 7.5 (40-144) ng/(mm³xdt/2)

Q: And the “CE/FC” value [2]?
A: 0.52 µg/µg
